# Results: ChEMBL document CHEMBL6115029, “Discovery of Daraxonrasib (RMC-6236), a Potent and Orally Bioavailable RAS(ON) Multi-selective, Noncovalent Tri-complex Inhibitor for the Treatment of Patients with Multiple RAS-Addicted Cancers” (J Med Chem, 2025)
# Activity calls are given as the source filed them. The rule behind the calls is not given here.
# Key:
# [1] = Inhibition of 6His-tagged wildtype KRAS (1 to 169 residues)/GST-tagged GMPPNP-bound BRAF RBD (155 to 229 reisudes)/Cyclophilin A (unknown origin) tri-complex protein-protein interaction incubated for 3 hrs by TR-FERT based disruption assay; set-up: species or system Homo sapiens
# NCI-H1975 [2] = assay: Cytotoxicity against human NCI-H1975 cells harboring wildtype KRAS cultured as 2D cells assessed as reduction in cell viability incubated for 120 hrs by CellTiter-Glo luminescence assay; type: functional, cell-based; details: NCI-H1975, 120 h
# [3] = Inhibition of ERK1/2 phosphorylation in human CAPAN-1 cells harboring KRAS G12V mutant incubated for 4 hrs by AlphaLISA assay; type: cell-based; details: CAPAN-1, 4 h
# [4] = Metabolic stability in mouse liver microsomes assessed as half-life at 2 uM measured upto 60 mins in presence of NADPH by LC-MS/MS analysis; type: ADME, Microsome
# A-375 = assay: Cytotoxicity against human A-375 cells assessed as reduction in cell viability incubated for 120 hrs by CellTiter-Glo luminescence assay; type: functional, cell-based; details: A-375, 120 h
# [5] = Apparent permeability across apical to basolateral side in human Caco-2 cells at 5 uM incubated for 2 hrs by LC-MS/MS analysis; type: ADME, cell-based
# [6] = Efflux ratio of apparent permeability in human Caco-2 cells at 5 uM incubated for 2 hrs by LC-MS/MS analysis; type: ADME, cell-based
# [7] = Lipophilicity, logD of compound at pH 7.4 by Agilent 1290 II uPLC analysis; type: physicochemical; details: buffer
# [8] = Volume of distribution at steady state in female BALB/c mouse at 1 mg/kg, iv measured after 24 hrs by LC-MS/MS analysis; type: ADME, organism-based; details: in vivo, read-out: Vdss
# [9] = Volume of distribution at steady state in male Sprague-Dawley rat at 1 mg/kg, iv measured after 24 hrs by LC-MS/MS analysis; type: ADME, organism-based; details: in vivo, read-out: Vdss
# [10] = Clearance in male Sprague-Dawley rat at 1 mg/kg, iv measured after 24 hrs by LC-MS/MS analysis; type: ADME, organism-based; details: in vivo
# [11] = Half-life in male Sprague-Dawley rat at 60 mg/kg, po measured after 24 hrs by LC-MS/MS analysis; type: ADME, organism-based; details: in vivo
# [12] = Clearance in male Beagle dog at 1 mg/kg, iv measured after 24 hrs by LC-MS/MS analysis; type: ADME, organism-based, Canis lupus familiaris; details: in vivo
# [13] = Volume of distribution at steady state in male Beagle dog at 1 mg/kg, iv measured after 24 hrs by LC-MS/MS analysis; type: ADME, organism-based, Canis lupus familiaris; details: in vivo, read-out: Vdss
# [14] = Clearance in male cynomolgus monkey at 1 mg/kg, iv measured after 24 hrs by LC-MS/MS analysis; type: ADME, organism-based, Macaca fascicularis; details: in vivo
# [15] = Volume of distribution at steady state in male cynomolgus monkey at 1 mg/kg, iv measured after 24 hrs by LC-MS/MS analysis; type: ADME, organism-based, Macaca fascicularis; details: in vivo, read-out: Vdss
# [16] = Half-life in male cynomolgus monkey at 1 mg/kg, iv measured after 24 hrs by LC-MS/MS analysis; type: ADME, organism-based, Macaca fascicularis; details: in vivo
# [17] = Half-life in male cynomolgus monkey at 10 mg/kg, po measured after 24 hrs by LC-MS/MS analysis; type: ADME, organism-based, Macaca fascicularis; details: in vivo
# [18] = Ratio of drug concentration in mouse blood to plasma at 0.1 uM measured upto 120 mins by LC-MS/MS analysis; type: ADME, cell-free
# [19] = Ratio of drug concentration in mouse blood to plasma at 10 uM measured upto 120 mins by LC-MS/MS analysis; type: ADME, cell-free
# NCI-H1975 [20] = assay: Inhibition of ERK1/2 phosphorylation in human NCI-H1975 cells harboring wildtype KRAS incubated for 4 hrs by AlphaLISA assay; type: cell-based
# NCI-H441 [21] = assay: Inhibition of ERK1/2 phosphorylation in human NCI-H441 cells harboring KRAS G12V mutant incubated for 4 hrs by AlphaLISA assay; type: cell-based
# Hs766T = assay: Inhibition of ERK1/2 phosphorylation in human Hs766T cells harboring […] mutant incubated for 4 hrs by AlphaLISA assay; type: cell-based
# SK-MEL-30 [22] = assay: Inhibition of ERK1/2 phosphorylation in human SK-MEL-30 cells harboring […] mutant incubated for 4 hrs by AlphaLISA assay; type: cell-based
# PSN1 = assay: Cytotoxicity against human PSN1 cells harboring KRAS G12R mutant cultured as 2D cells assessed as inhibition of cell proliferation incubated for 120 hrs by CellTiter-Glo luminescence assay; type: functional, cell-based
# NCI-H441 [23] = assay: Cytotoxicity against human NCI-H441 cells harboring KRAS G12V mutant cultured as 2D cells assessed as inhibition of cell proliferation incubated for 120 hrs by CellTiter-Glo luminescence assay; type: functional, cell-based
# HCT-116 = assay: Cytotoxicity against human HCT-116 cells harboring KRAS G13D mutant cultured as 2D cells assessed as inhibition of cell proliferation incubated for 120 hrs by CellTiter-Glo luminescence assay; type: functional, cell-based
# SK-MEL-30 [24] = assay: Cytotoxicity against human SK-MEL-30 cells harboring […] mutant cultured as 2D cells assessed as inhibition of cell proliferation incubated for 120 hrs by CellTiter-Glo luminescence assay; type: functional, cell-based
# [25] = In vivo inhibition of MAPK signaling pathway in female BALB/c nude mouse xenografted with human MIA PaCa-2 cells harboring KRAS G12C/G12C mutant assessed as reduction in DUSP6 mRNA level in tumor at 25 mg/kg, po administered as single dose and measured after 8 hrs by qPCR analysis relative to control; type: functional
# Mus musculus [26] = assay: In vivo inhibition of MAPK signaling pathway in female BALB/c nude mouse xenografted with human MIA PaCa-2 cells harboring KRAS G12C/G12C mutant assessed as reduction in DUSP6 mRNA level in tumor at 25 mg/kg, po administered as single dose and measured upto 48 hrs by qPCR analysis; type: functional, organism-based
# Mus musculus [27] = assay: In vivo inhibition of MAPK signaling pathway in female BALB/c nude mouse xenografted with human MIA PaCa-2 cells harboring KRAS G12C/G12C mutant assessed as reduction in DUSP6 mRNA level in tumor at 3 to 10 mg/kg, po administered as single dose and measured upto 48 hrs by qPCR analysis; type: functional, organism-based; details: dose 3-10 mg/kg
# MIA PaCa-2 [28] = assay: Antitumor activity against human MIA PaCa-2 cells harboring KRAS G12C/G12C mutant xenografted in female BALB/c mouse model assessed as reduction in tumor volume administered orally as once daily dose for 28 days; type: functional, cell-based; details: dose 3-25 mg/kg, route po, time 28.0 day
# MIA PaCa-2 [29] = assay: Antitumor activity against human MIA PaCa-2 cells harboring KRAS G12C/G12C mutant xenografted in female BALB/c mouse model assessed as tumor regression at 25 mg/kg, po administered once daily for 28 days; type: functional, organism-based; details: time 28.0 day
# NCI-H1373 = assay: Antitumor activity against human NCI-H1373 cells harboring KRAS G12C/KRAS G12C mutant xenografted in female BALB/c nude mouse assessed as tumor regression at 25 mg/kg, po administered once daily for 28 days; type: functional, organism-based; details: time 28.0 day
# [30] = molecular target: Sodium channel protein type 5 subunit alpha (Homo sapiens, UniProt Q14524); assay: Inhibition of human Nav1.5; type: toxicity
# [31] = Toxicity in human PBL cells in absence of rat S9 fraction by micronucleus assay; type: cell-based
# Sodium channel protein type 5 subunit alpha, sequence (Q14524 whole entry): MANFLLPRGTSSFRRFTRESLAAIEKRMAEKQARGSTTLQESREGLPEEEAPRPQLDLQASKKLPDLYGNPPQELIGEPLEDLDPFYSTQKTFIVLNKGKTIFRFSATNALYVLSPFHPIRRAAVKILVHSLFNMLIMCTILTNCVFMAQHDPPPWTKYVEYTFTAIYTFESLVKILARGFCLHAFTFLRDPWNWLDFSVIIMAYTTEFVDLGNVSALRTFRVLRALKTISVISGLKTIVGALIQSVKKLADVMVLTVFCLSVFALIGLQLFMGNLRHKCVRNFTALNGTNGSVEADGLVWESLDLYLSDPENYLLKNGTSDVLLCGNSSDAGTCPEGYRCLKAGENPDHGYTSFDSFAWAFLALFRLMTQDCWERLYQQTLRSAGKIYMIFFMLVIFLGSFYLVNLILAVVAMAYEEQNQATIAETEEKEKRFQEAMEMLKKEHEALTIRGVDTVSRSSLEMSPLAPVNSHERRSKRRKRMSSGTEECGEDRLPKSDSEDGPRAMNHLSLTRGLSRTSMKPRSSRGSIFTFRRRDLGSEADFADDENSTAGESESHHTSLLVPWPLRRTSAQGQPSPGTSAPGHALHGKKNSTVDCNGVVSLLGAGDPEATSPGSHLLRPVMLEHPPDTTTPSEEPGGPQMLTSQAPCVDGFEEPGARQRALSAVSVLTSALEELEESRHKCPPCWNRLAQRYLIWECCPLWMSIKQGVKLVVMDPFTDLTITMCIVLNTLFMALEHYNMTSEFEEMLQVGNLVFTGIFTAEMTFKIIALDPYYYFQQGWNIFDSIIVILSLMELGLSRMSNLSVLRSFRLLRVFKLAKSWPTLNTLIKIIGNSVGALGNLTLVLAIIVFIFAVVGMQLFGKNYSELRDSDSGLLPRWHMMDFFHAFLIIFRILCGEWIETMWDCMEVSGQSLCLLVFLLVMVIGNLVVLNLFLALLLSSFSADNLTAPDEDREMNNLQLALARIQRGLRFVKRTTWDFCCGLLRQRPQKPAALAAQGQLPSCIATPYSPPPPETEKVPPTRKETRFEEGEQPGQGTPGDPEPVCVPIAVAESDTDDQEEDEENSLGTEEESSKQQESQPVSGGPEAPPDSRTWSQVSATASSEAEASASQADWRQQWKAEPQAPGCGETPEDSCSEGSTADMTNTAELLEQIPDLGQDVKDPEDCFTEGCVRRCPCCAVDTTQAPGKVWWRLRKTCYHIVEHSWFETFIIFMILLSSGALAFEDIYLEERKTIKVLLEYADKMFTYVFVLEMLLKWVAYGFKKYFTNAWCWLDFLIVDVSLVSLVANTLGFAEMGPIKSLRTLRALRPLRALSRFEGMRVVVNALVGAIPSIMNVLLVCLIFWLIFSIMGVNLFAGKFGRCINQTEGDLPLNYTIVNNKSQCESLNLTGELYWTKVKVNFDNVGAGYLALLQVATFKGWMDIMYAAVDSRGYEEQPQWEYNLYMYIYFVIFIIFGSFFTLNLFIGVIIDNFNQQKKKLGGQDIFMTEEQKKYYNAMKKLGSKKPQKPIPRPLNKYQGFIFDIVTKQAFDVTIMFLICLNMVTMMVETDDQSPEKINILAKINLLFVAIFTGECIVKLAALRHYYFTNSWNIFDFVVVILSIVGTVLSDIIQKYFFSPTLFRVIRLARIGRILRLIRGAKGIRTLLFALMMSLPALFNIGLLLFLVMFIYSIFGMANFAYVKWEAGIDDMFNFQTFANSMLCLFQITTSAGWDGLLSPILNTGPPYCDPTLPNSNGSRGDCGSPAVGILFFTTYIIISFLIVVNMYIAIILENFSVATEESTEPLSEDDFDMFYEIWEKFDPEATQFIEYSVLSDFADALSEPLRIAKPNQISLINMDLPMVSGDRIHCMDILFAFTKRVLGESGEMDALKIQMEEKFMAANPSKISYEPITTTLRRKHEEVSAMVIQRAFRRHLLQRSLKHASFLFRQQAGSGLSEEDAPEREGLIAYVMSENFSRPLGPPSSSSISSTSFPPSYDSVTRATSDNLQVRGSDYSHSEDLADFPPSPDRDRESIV
smiles,measurement,setting,value
CCn1c(-c2cc(N3CCN(C)CC3)cnc2[C@H](C)OC)c2c3cc(ccc31)-c1csc(n1)C[C@H](NC(=O)[C@H]1C[C@@H]1C)C(=O)N1CCC[C@H](N1)C(=O)OCC(C)(C)C2,IC50,[1],92 nM
same,EC50,NCI-H1975 [2],1.4 nM
same,EC50,[3],0.3 nM
same,half-life at 2 µM,[4],1.13 h
same,EC50,A-375,7210 nM
same,"Papp A→B at 2 h, 5 µM",[5],0.4 ×10⁻⁶ cm/s
same,"efflux ratio at 2 h, 5 µM",[6],21
same,logD,[7],4.5
same,Vd,[8],1.3 L/kg
same,Vd,[9],1.9 L/kg
same,clearance,[10],21.7 mL/min/kg
same,half-life,[11],2.8 h
same,clearance,[12],6.67 mL/min/kg
same,Vd,[13],2.1 L/kg
same,clearance,[14],8.33 mL/min/kg
same,Vd,[15],2.9 L/kg
same,half-life,[16],6.2 h
same,half-life,[17],4.6 h
same,"blood plasma ratio at 2 h, 0.1 µM",[18],4.2
same,"blood plasma ratio at 2 h, 10 µM",[19],1.1
same,inhibition,NCI-H1975 [20],Active
same,inhibition,NCI-H441 [21],Active
same,inhibition,Hs766T,Active
same,inhibition,SK-MEL-30 [22],Active
same,Activity,PSN1,Active
same,Activity,NCI-H441 [23],Active
same,Activity,HCT-116,Active
same,Activity,SK-MEL-30 [24],Active
same,inhibition in vivo at 25 mg/kg,[25],98%
same,inhibition,Mus musculus [26],Active
same,inhibition,Mus musculus [27],Not active; Pathway Reactivation Observed
same,Activity,MIA PaCa-2 [28],Dose-dependent-effect
same,Activity,MIA PaCa-2 [29],Active
same,Activity,NCI-H1373,Active
same,IC50,[30],> 30000 nM
same,Activity,[31],Non-toxic
